Laboratory results taken from patent US12594292B2, “Antiviral prodrugs, intermediate-and long-acting formulations and methods” (priority 2022, dated 2026).

Assays:
[1] = test system: SARS-CoV-2 isolate USA-WA1/2020; experiment: SARS-CoV-2 infection in Huh7.5 cells, qRT-PCR (Example 7); assay type: cell-based
[2] = test system: SARS-CoV-2 isolate USA-WA1/2020; experiment: SARS-CoV-2 infection in Calu-3 cells, qRT-PCR (Example 7); assay type: cell-based
VERO E6 cells [3] = experiment: CellTiter-Glo luminescent cell viability assay, Vero E6 (Example 3); assay type: cell-based
SARS-CoV-2 [4] = experiment: SARS-CoV-2 infection assay in Calu-3 cells, nucleocapsid immunofluorescence (Example 6); settings: MOI 0.01, 44 hour
PSC-human lung cells = experiment: Cell viability assay CellTiter-Glo, PSC-human lung cells (Example 7)
Hep-2 cells = experiment: Cell viability assay for the RSV table (CC50); assay type: cell-based
Human Coronavirus 229E = Human Coronavirus 229E infected MRC-5 cells, CPE by MTT (Example 8); assay type: cell-based; settings: 229E in MRC-5 cells, 72 hours
Calu-3 cells = experiment: Cytotoxicity in Calu-3 cells, nuclei count or CellTiter-Glo (Example 6); settings: for select compounds up to 100 μM by CellTiter-Glo
Protocol: After which an equal volume of CellTiter-Glo reagent (Cat. #G7570, Promega, Madison, WI) was added, mixed and luminescence recorded on a Veritas Microplate Luminometer (Turner BioSystems) according to manufacturer recommendations.

VERO E6 cells [5] = experiment: Cell viability assay CellTiter-Glo, Vero E6 cells (Example 7)
Huh7.5 cells = experiment: Cytotoxicity in Huh7.5 cells, nuclei count (Example 6); assay type: cell-based, human
SARS-CoV-2 [6] = experiment: SARS-CoV-2 infection assay in Huh7.5 cells, nucleocapsid immunofluorescence (Example 6); assay type: cell-based; settings: MOI 0.1, 48 hours
[7] = test system: SARS-CoV-2 isolate USA-WA1/2020; experiment: SARS-CoV-2 infection in PSC-human lung cells, qRT-PCR (Example 7); assay type: cell-based
TMPRSS2-Vero cells = experiment: Cytotoxicity in TMPRSS2-Vero cells, nuclei count (Example 6); assay type: cell-based
Caco-2 cells = experiment: Cell viability assay CellTiter-Glo, Caco-2 cells (Example 7); settings: Caco-2 cells, CellTiter-Glo

**Q.** Which Selectivity ([1]; CC50/EC50, Huh7.5 cells) does the source give for CCCCCCCCCCCCCCCCCCOC[C@H](COP(=O)(O)OC[C@H]1O[C@@](C#N)(c2ccc3c(N)ncnn23)[C@H](O)[C@@H]1O)OCc1ccccc1 [Compound 15d, 1-O-octadecyl-2-O-benzyl-sn-glyceryl-phospho-RVn] here?
**A.** Its Selectivity is 449.

**Q.** What about the EC90 ([1]; Huh7.5 cells, MOI 0.01, 48 hours, qRT-PCR (Example 7)) of the same molecule?
**A.** The EC90 was 150 nM.

**Q.** What about the EC50 ([1]; Huh7.5 cells, MOI 0.01, 48 hours, qRT-PCR (Example 7), listed as ODBG-P-RVn) of the same molecule?
**A.** The EC50 was 140 nM.

**Q.** And the Selectivity ([2]; CC50/EC50, Calu-3 cells)?
**A.** The Selectivity was 327.

**Q.** What about the EC90 ([2]; Calu-3 cells, MOI 0.01, 48 hours) of the same molecule?
**A.** Its EC90 is 330 nM.

**Q.** What about the EC50 ([2]; Calu-3 cells, MOI 0.01, 48 hours, listed as ODBG-P-RVn) of the same molecule?
**A.** The EC50 was 300 nM.

**Q.** What about the CC50 (VERO E6 cells [3]) of the same molecule?
**A.** Its CC50 is 46000 nM.

**Q.** And the EC50 (SARS-CoV-2 [4])?
**A.** The EC50 was 164 ± 20 nM.

**Q.** What about the EC90 (SARS-CoV-2 [4]) of the same molecule?
**A.** Its EC90 is 536 ± 138 nM.

**Q.** And the CC50 (PSC-human lung cells)?
**A.** The CC50 was 61500 nM.

**Q.** And the CC50 (Hep-2 cells)?
**A.** Its CC50 is 14700 nM.

**Q.** And the EC50 (Human Coronavirus 229E)?
**A.** Its EC50 is 150 nM.

**Q.** What about the CC50 (Calu-3 cells) of the same molecule?
**A.** The CC50 was over 20000 nM.

**Q.** What about the CC50 (VERO E6 cells [5]) of the same molecule?
**A.** The CC50 was 97900 nM.

**Q.** And the CC50 (Huh7.5 cells)?
**A.** Its CC50 is over 20000 nM.

**Q.** And the EC50 (SARS-CoV-2 [6])?
**A.** The EC50 was 138 nM.

**Q.** And the EC90 (SARS-CoV-2 [6])?
**A.** Its EC90 is 377 nM.

**Q.** What about the Selectivity ([7]; CC50/EC50, PSC-human lung cells) of the same molecule?
**A.** Its Selectivity is 410.

**Q.** And the EC90 ([7]; PSC-human lung cells, MOI 0.01, 48 hours)?
**A.** The EC90 was 260 nM.

**Q.** And the CC50 (TMPRSS2-Vero cells)?
**A.** Its CC50 is over 20000 nM.

**Q.** And the CC50 (Caco-2 cells)?
**A.** Its CC50 is 88400 nM.
